How the values were obtained:
[1] = system: HBD-1, HBD-2, HBD-3, LL-37, psoriasin, dermcidin, and RNase 7; assay: AMP expression (Q-RT-PCR) in keratinocytes treated with Poly I:C and the scavengers PTIO or NAC, with or without blue/violet light; assay type: cell-based, human
Protocol: (§1) First, according to a commercially secured and recommended method, the human epidermal neonatal keratinocytes used in the present invention were purchased from Lonza, Inc. (Walkersville, Md., US), subcultured, and then cultured in a CO2 incubator under the conditions of 37° C. and 5% CO2. The culture medium was prepared according to the guideline provided by Lonza, Inc. KGM-2 Bullet kit: BPE (Bovine pituitary extract) 2 ml, hEGF (human epidermal growth factor) 0.5 ml, insulin 0.5 ml, hydrocortisone 0.5 ml, transferrin 0.5 ml, epinephrine 0.5 ml, and gentamycin sulfate+amphotericin-B(GA-1000) 0.5 ml were added to 500 ml of KBM-2 (Clonetics CC-3103) medium.
(§2) Subsequently, blue/violet light of a wavelength from 400 to 500 nm was radiated to the medium in which human epidermal neonatal keratinocytes is cultured (10 J/cm^2). […]
(§3) Then, the separated RNA was once again purified by using an RNA kit (QIAGEN RNeasy kt, QIAGEN, Valencia, Calif.), and then the quality of the RNA was examined by using Agilent 2100 BioAnalyzer (Agilent Technologies, Santa Clara, Calif., USA). The Superscript Reverse Transcriptase (RT) kit (Invitrogen, Carlsbad, Calif.) was used to synthesize cDNA from the RNA, and the cDNA was quantitatively analyzed through a real time-reverse transcription polymerase chain reaction (Q-RT-PCR). […]

[2] = system: HBD-1, HBD-2, HBD-3, LL-37, psoriasin, dermcidin, and RNase7; assay: AMP expression (Q-RT-PCR) in keratinocytes treated with Poly I:C and flagellin, with or without blue/violet light; assay type: cell-based; settings: human epidermal neonatal keratinocytes; Poly I:C and flagellin treatment; FIGS. 3a to 3g
Protocol: as §1, §2, §3

Compound	expression level of the AMPs on blue/violet light radiation ([1]; Poly I:C treated keratinocytes, blue/violet light 10 J/cm^2, scavenger treated group)	expression level of HBD-1, HBD-2, HBD-3, LL-37, psoriasin, dermcidin, and RNase7 ([1]; human epidermal neonatal keratinocytes, Poly I:C treatment, FIGS. 4a to 4g)	expression level of HBD-1, HBD-2, HBD-3, LL-37, psoriasin, dermcidin, and RNase7 [2]
CC1(C)N([O])C(c2ccc(C(=O)[O-])cc2)=[N+]([O-])C1(C)C.[K+] [PTIO, 2-(4-Carboxyphenyl)-4,4,5,5-tetramethylimidazoline-1-oxyl-3-oxide potassium salt]	not reduced		
Poly I:C		increased	increased
flagellin			increased
